{
  "source": "patent US10570180B2",
  "about": "“Anti-bacterial agents and their use in therapy” (priority 2015, dated 2020)",
  "key": {"[1]": {"tested_on": "gram negative bacteria (Pseudomonas aeruginosa ATCC 15692, Acinetobacter baumenni ATCC 19606, Escherichia coli ATCC 25922, Pseudomonas aeruginosa TO-5A)", "type": "cell-based", "protocol": "(§1) The minimum inhibitory concentration (MIC) of ATX-101 (SEQ ID NO: 1289) was determined for various gram negative and gram positive bacteria. The bacteria, Pseudomonas aeruginosa ATCC 15692, Acinetobacter baumenni ATCC 19600, Escherichia coli ATCC 25922, Pseudomonas aeruginosa TO-5A (clinical isolate), Enterococous faecium CCUG 37832, Enterococcus faecium CTC 492, Micrococcus luteus ATCC 9341 and Escherichie coli NCIMB 12210 were grown in the presence of various concentrations of ATX-101 and/or antibiotic.\n(§2) ATX-101 was dissolved in Mueller-Hinton broth to 1.25 times of the desired assay concentration. Antibiotics were dissolved in Mueller-Hinton broth and Mueller-Hinton broth with ATX-101 at a concentration of 1.25 times the highest desired assay concentrations. Antibiotics were pharmaceutical grade purchased from Sigma-Aldrich.\n(§3) Two-fold serial dilutions of antibiotics were made in Mueller-Hinton with different concentrations of ATX-101, and the solutions were placed in four parallel wells is Nunc 384-well micro plates (30 μl per well in Nunc 242757 microplates). A group of 8 wells with no addition of antibiotics for each ATX-101 concentration was included on each micro plate as a growth reference.\n(§4) At the day of analysis, overnight TSB cultures inoculated from freeze stocks (6 ml in 50 ml tube tilted to 45-degrees angle, 200 rpm, 2.5 cm amplitude, 37° C.) were diluted in TSB until the OD800 was 0.10, and further diluted 1:40 in Mueller-Hinton broth. Each well in the 384-well assay plates was inoculated with 7.5 μl of the diluted culture, giving the same dilution of the culture in the assay cultures. The microplates were placed in plastic bags and incubated without shaking at 37° C. The optical density at 600 nm in the microwells was measured after approximately 19 hours of incubation, and the relative growth yield was calculated based on the growth in the reference groups. The MIC value was set to the highest concentration giving less than 30% growth in all 4 parallel wells within the sample groups. The microplates were further incubated for 6 hours, and optical density in the cultures was measured once more for confirmation of the estimated MIC-values."}, "[2]": {"tested_on": "gram positive bacteria (Enterococcus faecium CCUG 37832, Enterococcus faecium CTC 492, Micrococcus luteus ATCC 9341)", "type": "cell-based", "protocol": "as §1, §2, §3, §4"}, "E. faecium CTC 492": {"tested_on": "E. faecium CTC 492", "assay": "MIC assay of antibiotics with ATX-101", "type": "cell-based, Enterococcus faecium", "protocol": "as §1, §2, §3, §4\nas §2, with “The APIM peptide was” for “ATX-101 was”, “with APIM” for “with ATX-101”\nas §3, with “APIM,” for “ATX-101,”, “in” for “is”, “APIM” for “ATX-101”, “as” for “as a”\nas §4, with “inoculated” for “inoculated from”, “OD600” for “OD800”, “culture.” for “culture, giving the same dilution of the culture in the assay cultures.”, “yield in each well” for “yield”"}, "E. coli NCIMB 12210": {"tested_on": "E. coli NCIMB 12210", "assay": "MIC assay of antibiotics with ATX-101", "type": "cell-based, Escherichia coli", "details": "FIG. 4", "protocol": "as §1, §2, §3, §4\nas §2, with “The APIM peptide was” for “ATX-101 was”, “with APIM” for “with ATX-101”\nas §3, with “APIM,” for “ATX-101,”, “in” for “is”, “APIM” for “ATX-101”, “as” for “as a”\nas §4, with “inoculated” for “inoculated from”, “OD600” for “OD800”, “culture.” for “culture, giving the same dilution of the culture in the assay cultures.”, “yield in each well” for “yield”"}, "E. faecium TO-12": {"tested_on": "E. faecium TO-12", "type": "cell-based", "protocol": "as §2, §3, §4\n(§5) The MICS for various APIM peptides were determined for various bacteria, as described above."}, "P. aeruginosa": {"tested_on": "P. aeruginosa", "type": "cell-based", "protocol": "as §2, §3, §4, §5"}, "[3]": {"tested_on": "Staphylococcus aureus NCTC 6571", "type": "cell-based", "protocol": "as §2, §3, §4, §5"}, "[4]": {"tested_on": "Staphylococcus aureus MRSA 1040s", "assay": "microbe, parasite or virus in culture", "type": "cell-based", "protocol": "as §2, §3, §4\nas §2, with “The APIM peptide was” for “ATX-101 was”, “with APIM” for “with ATX-101”\nas §3, with “APIM,” for “ATX-101,”, “in” for “is”, “APIM” for “ATX-101”, “as” for “as a”\nas §4, with “inoculated” for “inoculated from”, “OD600” for “OD800”, “culture.” for “culture, giving the same dilution of the culture in the assay cultures.”, “yield in each well” for “yield”\nIn view of the anti-bacterial effect of ATX-101 on strains of MRSA, the MIC for a variety of APIM variants was determined using Staphylococcus aureus MRSA 1040s. […] A cell penetrating peptide (SEQ ID NO: 337) present in all of the APIM peptides, was used as a negative control.\nNext, the effect of APIM peptides on the MIC of antibiotics was determined using Staphylococcus aureus MRSA 1040s.\nas §5"}, "[5]": {"tested_on": "Staphylococcus aureus MRSA 1096", "type": "cell-based", "protocol": "as §2, §3\nAt the day of analysis, overnight TSB cultures inoculated from freeze stocks (6 ml in 50 ml tube tilted to 45-degrees angle, 200 rpm, 2.5 cm amplitude, 37° C.) were diluted in TSB until the OD800 was 0.10, and further diluted 1:40 in Mueller-Hinton broth. […] The optical density at 600 nm in the microwells was measured after approximately 19 hours of incubation, and the relative growth yield was calculated based on the growth in the reference groups. […] The microplates were further incubated for 6 hours, and optical density in the cultures was measured once more for confirmation of the estimated MIC-values."}, "[6]": {"tested_on": "E. faecium CCUG 37832 (TO-3)", "type": "cell-based, Enterococcus faecium", "protocol": "as §2, §3, §4\nAccordingly, concentrations of 8 μg/ml and 16 μg/ml of ATX-101 were combined with various antibiotics selected from; 2,4-Diamin, S. methizol, S. methoxa, S. dimetho, Surfaceta, Trimeth, Flumeq, Levoflox, Pruliflox, Metronid and Nitrofur.\nas §5"}, "MRSA 1040 (u50) biofilm": {"tested_on": "MRSA 1040 (u50) biofilm", "assay": "MRSA biofilm under flow (IBIDI flow-system)", "type": "cell-based, Staphylococcus aureus", "protocol": "The IBIDI flow-system coupled with EVOS Auto Imaging system was optimized and used for testing the effect of ATX-101 on MRSA biofilm under flow. MRSA 1040 (u50) was used as model organism; it normally produces a dense biofilm in the growth channel during 36 hours of flow. The effect of 3 different concentrations of ATX-101 was tested (7 μg/ml, 3.5 μg/ml and 0.8 μg/ml). The flow system was programmed with share stress similar to those found in capillary networks (3.49 dyne/cm^2), 2% Luria Bertani (LB) was used for dilution and flow medium."}, "[7]": {"details": "starting concentration of ATX-101 150 μg/ml"}},
  "note": "Like-named read-outs stand apart in the source and are kept apart here. Ends that are not written are not given here.",
  "data": [
    {"sequence": "MDRWLVKWKKKRKIRRRRRRRRRRR [ATX-101]", "values": [
      {"measurement": "MIC", "setting": "[1]", "result": "5 to 10", "unit": "µg/mL"},
      {"measurement": "growth inhibited by ATX-101 from (concentration)", "setting": "[1]; FIG. 1, gram negative bacteria", "result": "about 1 μM"},
      {"measurement": "MIC", "setting": "[2]", "result": "about 1 μg/ml"},
      {"measurement": "growth inhibited by ATX-101 from (concentration)", "setting": "[2]; FIG. 2, gram positive bacteria", "result": "about 1 μM"},
      {"measurement": "effect on inhibition of bacterial growth by novobiocin", "setting": "E. faecium CTC 492; 6.5 μg/ml or 13 μg/ml ATX-101, about 0.5-2 μg/ml novobiocin", "result": "enhances the inhibition of bacterial growth"},
      {"measurement": "growth at higher concentration of ATX-101", "setting": "E. faecium CTC 492; 20 μg/ml ATX-101, with or without ampicillin or novobiocin", "result": "no growth was observed"},
      {"measurement": "reduction of the MIC for novobiocin", "setting": "E. coli NCIMB 12210", "result": 16, "unit": "fold"},
      {"measurement": "MIC", "setting": "E. faecium TO-12", "result": 16.8, "unit": "µM"},
      {"measurement": "MIC", "setting": "P. aeruginosa", "result": 37.9, "unit": "µM"},
      {"measurement": "MIC", "setting": "[3]; NCTC 6571", "result": 37.9, "unit": "µM"},
      {"measurement": "MIC of ATX-101", "setting": "[3]; Staphylococcus aureus NCTC 6571", "result": 150, "unit": "µg/mL"},
      {"measurement": "Factor of inhibition", "setting": "[3]; [7]", "result": 1},
      {"measurement": "MIC", "setting": "[4]; 1040s", "result": 7.5, "unit": "µM"},
      {"measurement": "MIC of ATX-101", "setting": "[4]; Table 4, MRSA 1040s", "result": 37.5, "unit": "µg/mL"},
      {"measurement": "MIC", "setting": "[4]; Table 5, peptide alone, MRSA 1040s", "result": 32, "unit": "µg/mL"},
      {"measurement": "MIC", "setting": "[4]; Table 6, alone, MRSA 1040s", "result": 16, "unit": "µg/mL"},
      {"measurement": "MIC of Erythromycin (Relative values)", "setting": "[4]; concentration of APIM peptide 7.5 μg/ml, MRSA 1040s", "result": 1000},
      {"measurement": "MIC of Erythromycin (Relative values)", "setting": "[4]; concentration of APIM peptide 15 μg/ml, MRSA 1040s", "result": 125},
      {"measurement": "Factor of inhibition", "setting": "[4]; [7]", "result": 0.25},
      {"measurement": "MIC of ATX-101", "setting": "[5]; MRSA 1096", "result": 9.375, "unit": "µg/mL"},
      {"measurement": "Factor of inhibition", "setting": "[5]; [7]", "result": 0.0625},
      {"measurement": "MIC", "setting": "[6]; ATX-101 alone, text b504", "result": 7.5, "unit": "µg/mL"},
      {"measurement": "MIC", "setting": "[6]; Table 9, E. faecium TO-3", "result": 7.5, "unit": "µM"},
      {"measurement": "biofilm formation", "setting": "MRSA 1040 (u50) biofilm; 0.8 μg/ml ATX-101, 36 hours, FIG. 15", "result": "biofilm formation is inhibited"},
      {"measurement": "biofilm formation", "setting": "MRSA 1040 (u50) biofilm; 7 μg/ml ATX-101, 36 hours, FIG. 14", "result": "biofilm formation is inhibited"},
      {"measurement": "effect on MRSA biofilm under flow", "setting": "MRSA 1040 (u50) biofilm; 7 μg/ml, 3.5 μg/ml and 0.8 μg/ml", "result": "Good effect"}
    ]}
  ]
}
